Results from patent US6743794B2, “Methods and compounds for inhibiting MRP1” (Eli Lilly and Company, priority 1999, dated 2004).

Experiments:
MRP1 = molecular target: T1, MRP1 (Homo sapiens, UniProt P33527); assay: Assay for reversal of MRP1-mediated doxorubicin resistance (HL60/Adr cells, alamarBlue viability); type: cell-based; settings: oncolytic alone at the tested concentration, no test compound
T1 construct: HL60/Adr and HL60/Vinc are continuous cell lines, which were selected for doxorubicin and vincristine resistance respectively; endogenous in cells; host or cells: HL60/Adr (doxorubicin-selected HL60)
T1 sequence (P33527 whole entry): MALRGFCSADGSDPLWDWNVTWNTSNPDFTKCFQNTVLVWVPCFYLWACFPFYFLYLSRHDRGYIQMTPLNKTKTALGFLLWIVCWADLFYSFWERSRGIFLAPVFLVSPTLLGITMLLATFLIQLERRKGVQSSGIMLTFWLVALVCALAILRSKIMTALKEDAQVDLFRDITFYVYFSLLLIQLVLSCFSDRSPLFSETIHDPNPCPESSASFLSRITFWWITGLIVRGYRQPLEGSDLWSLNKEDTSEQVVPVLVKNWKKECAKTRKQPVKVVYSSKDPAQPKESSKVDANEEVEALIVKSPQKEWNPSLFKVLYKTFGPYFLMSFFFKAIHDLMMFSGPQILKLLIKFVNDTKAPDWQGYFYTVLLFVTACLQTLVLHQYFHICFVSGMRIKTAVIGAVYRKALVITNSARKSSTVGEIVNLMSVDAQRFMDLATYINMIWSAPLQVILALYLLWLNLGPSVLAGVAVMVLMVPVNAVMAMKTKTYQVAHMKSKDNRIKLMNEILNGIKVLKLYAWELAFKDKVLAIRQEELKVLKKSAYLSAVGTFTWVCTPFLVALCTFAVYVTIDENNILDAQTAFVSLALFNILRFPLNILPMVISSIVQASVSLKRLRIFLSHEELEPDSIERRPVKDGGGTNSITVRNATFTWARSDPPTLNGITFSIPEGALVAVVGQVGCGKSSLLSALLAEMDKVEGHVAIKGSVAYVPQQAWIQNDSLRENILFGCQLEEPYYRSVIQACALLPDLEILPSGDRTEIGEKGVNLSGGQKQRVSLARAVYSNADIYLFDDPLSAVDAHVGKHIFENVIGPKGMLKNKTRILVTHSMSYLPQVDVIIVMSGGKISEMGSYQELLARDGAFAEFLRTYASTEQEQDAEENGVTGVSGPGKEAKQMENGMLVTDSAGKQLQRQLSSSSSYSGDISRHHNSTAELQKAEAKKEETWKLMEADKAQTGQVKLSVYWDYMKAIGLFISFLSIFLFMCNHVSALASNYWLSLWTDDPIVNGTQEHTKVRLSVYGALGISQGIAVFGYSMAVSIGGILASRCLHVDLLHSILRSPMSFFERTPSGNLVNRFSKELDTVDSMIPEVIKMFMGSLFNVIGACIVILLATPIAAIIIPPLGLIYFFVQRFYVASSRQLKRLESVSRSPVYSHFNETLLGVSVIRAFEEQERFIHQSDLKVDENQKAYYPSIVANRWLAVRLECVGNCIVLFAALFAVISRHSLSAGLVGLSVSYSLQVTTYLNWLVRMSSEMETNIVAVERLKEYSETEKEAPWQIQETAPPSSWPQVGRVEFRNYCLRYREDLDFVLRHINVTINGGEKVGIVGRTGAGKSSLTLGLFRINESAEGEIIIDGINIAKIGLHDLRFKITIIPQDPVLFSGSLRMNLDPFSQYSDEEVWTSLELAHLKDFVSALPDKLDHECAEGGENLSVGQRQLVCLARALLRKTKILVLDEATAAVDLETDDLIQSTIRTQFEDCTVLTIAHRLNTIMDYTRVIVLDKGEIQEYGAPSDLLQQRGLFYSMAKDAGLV
Method: (§1) The biological activity of the compounds of the present invention was evaluated employing an initial screening assay which rapidly and accurately measured the activity of the tested compound in inhibiting MRP1 or MDR1. Assays useful for evaluating this reversing capability are well known in the art. See, e.g., T. McGrath, et al., Biochemical Pharmacology, 38:3611, 1989; D. Marquardt and M. S. Center, Cancer Research, 52:3157, 1992; D. Marquardt, et al., Cancer Research, 50:1426, 1990; and Cole, et. al., Cancer Research, 54: 5902-5910, 1994.
(§2) Assay for Reversal of MRP1-Mediated Doxorubicin Resistance and MDR1-Mediated Vincristine Resistance
(§3) HL60/Adr and HL60/Vinc are continuous cell lines, which were selected for doxorubicin and vincristine resistance respectively by culturing HL60, a human acute myeloblastic leukemia cell line, in increasing concentrations of doxorubicin or vincristine until a highly resistant variant was attained.
(§4) HL60/Adr and HL60/Vinc cells were grown in RPMI 1640 (Gibco) containing 10% fetal bovine serum (FBS) and 50 μg/ml GENTAMICIN™ (Sigma). Cells were harvested; washed twice with assay medium (same as culture media); counted; and diluted to 1×10^5 cells/ml in assay medium. One hundred microliters of cells were aliquoted into wells of a 96 well tissue culture plate. […]

MDR1 = molecular target: T2, MDR1 (Homo sapiens, UniProt P08183); assay: Assay for reversal of MDR1-mediated vincristine resistance (HL60/Vinc cells, alamarBlue viability); type: cell-based; settings: oncolytic alone at the tested concentration, no test compound
T2 construct: HL60/Adr and HL60/Vinc are continuous cell lines, which were selected for doxorubicin and vincristine resistance respectively; endogenous in cells; host or cells: HL60/Vinc (vincristine-selected HL60)
T2 sequence (P08183 whole entry): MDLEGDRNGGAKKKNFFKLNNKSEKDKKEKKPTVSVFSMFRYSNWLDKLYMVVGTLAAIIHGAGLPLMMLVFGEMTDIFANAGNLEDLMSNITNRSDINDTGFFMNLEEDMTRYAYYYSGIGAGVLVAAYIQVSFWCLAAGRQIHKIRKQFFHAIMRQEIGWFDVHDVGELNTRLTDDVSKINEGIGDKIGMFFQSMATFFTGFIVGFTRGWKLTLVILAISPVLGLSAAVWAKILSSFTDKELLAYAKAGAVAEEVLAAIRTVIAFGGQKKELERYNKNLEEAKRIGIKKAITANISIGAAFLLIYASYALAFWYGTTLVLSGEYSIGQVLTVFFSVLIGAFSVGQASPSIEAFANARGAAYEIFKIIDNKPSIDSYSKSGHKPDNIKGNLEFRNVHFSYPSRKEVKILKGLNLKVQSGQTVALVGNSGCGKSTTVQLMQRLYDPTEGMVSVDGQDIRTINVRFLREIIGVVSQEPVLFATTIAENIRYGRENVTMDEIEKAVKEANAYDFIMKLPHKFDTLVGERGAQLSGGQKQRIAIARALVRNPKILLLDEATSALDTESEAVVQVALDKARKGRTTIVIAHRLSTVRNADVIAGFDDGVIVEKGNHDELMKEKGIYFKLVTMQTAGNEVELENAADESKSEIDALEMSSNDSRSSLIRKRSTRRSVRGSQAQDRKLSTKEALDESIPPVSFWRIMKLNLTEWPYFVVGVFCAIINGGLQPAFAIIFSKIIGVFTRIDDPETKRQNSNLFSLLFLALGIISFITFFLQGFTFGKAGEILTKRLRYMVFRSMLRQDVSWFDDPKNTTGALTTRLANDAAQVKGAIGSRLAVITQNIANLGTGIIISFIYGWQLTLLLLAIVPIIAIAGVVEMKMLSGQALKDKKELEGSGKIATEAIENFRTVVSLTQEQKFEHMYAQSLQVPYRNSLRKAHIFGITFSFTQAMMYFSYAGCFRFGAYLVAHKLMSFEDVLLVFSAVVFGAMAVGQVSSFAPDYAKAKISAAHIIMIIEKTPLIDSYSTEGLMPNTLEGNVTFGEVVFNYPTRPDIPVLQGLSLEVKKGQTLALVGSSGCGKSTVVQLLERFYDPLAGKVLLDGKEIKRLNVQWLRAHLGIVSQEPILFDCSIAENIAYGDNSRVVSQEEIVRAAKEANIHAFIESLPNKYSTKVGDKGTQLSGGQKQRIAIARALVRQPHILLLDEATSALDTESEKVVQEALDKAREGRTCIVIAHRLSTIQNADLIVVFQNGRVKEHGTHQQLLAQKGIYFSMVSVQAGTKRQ
Method: as §1, §2, §3, §4

COc1cccc2c1C(=O)c1c(O)c3c(c(O)c1C2=O)C[C@@](O)(C(=O)CO)C[C@@H]3O[C@H]1C[C@H](N)[C@H](O)[C@H](C)O1 [doxorubicin]
inhibition of cell growth by the oncolytic alone (MRP1): minimally inhibits
inhibition of cell growth by the oncolytic alone (MDR1): minimally inhibits
